Experimental data reported in PubChem BioAssay (NCI).
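All cell lines were grown in 96-well plates and treated with compound for 48 hours. At the GI50, growth is halved. TGI denotes the concentration required for complete inhibition of growth.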

Experiments:
Test in all cases: NCI tumour cell line growth inhibition, 48 h
U251 CNS = system: U251 CNS
SF-295 CNS = system: SF-295 CNS
NCI/ADR-RES ovarian = system: NCI/ADR-RES ovarian
SK-MEL-2 melanoma = system: SK-MEL-2 melanoma
IGROV1 ovarian = system: IGROV1 ovarian
UACC-62 melanoma = system: UACC-62 melanoma
MDA-MB-231 breast = system: MDA-MB-231 breast
KM12 colon = system: KM12 colon
TK-10 renal = system: TK-10 renal
SF-539 CNS = system: SF-539 CNS
SF-268 CNS = system: SF-268 CNS
CAKI-1 renal = system: CAKI-1 renal
A549 NSCLC = system: A549 NSCLC
PC-3 prostate = system: PC-3 prostate
COLO 205 colon = system: COLO 205 colon
HCC-2998 colon = system: HCC-2998 colon
SK-MEL-5 melanoma = system: SK-MEL-5 melanoma
RPMI-8226 leukemia = system: RPMI-8226 leukemia
NCI-H460 lung = system: NCI-H460 lung
OVCAR-5 ovarian = system: OVCAR-5 ovarian
OVCAR-3 ovarian = system: OVCAR-3 ovarian
MDA-MB-435 = system: MDA-MB-435
HS 578T breast = system: HS 578T breast
OVCAR-8 ovarian = system: OVCAR-8 ovarian
MCF7 breast = system: MCF7 breast
DU-145 prostate = system: DU-145 prostate
CCRF-CEM leukemia = system: CCRF-CEM leukemia
A498 renal = system: A498 renal
SR leukemia = system: SR leukemia
UO-31 renal = system: UO-31 renal
UACC-257 melanoma = system: UACC-257 melanoma
M14 melanoma = system: M14 melanoma
SK-MEL-28 melanoma = system: SK-MEL-28 melanoma
LOX IMVI melanoma = system: LOX IMVI melanoma
T-47D breast = system: T-47D breast
ACHN renal = system: ACHN renal
HL-60(TB) leukemia = system: HL-60(TB) leukemia
MOLT-4 leukemia = system: MOLT-4 leukemia
HT29 colon = system: HT29 colon
HCT-116 colon = system: HCT-116 colon
HOP-62 NSCLC = system: HOP-62 NSCLC
NCI-H226 lung = system: NCI-H226 lung
BT-549 breast = system: BT-549 breast
SK-OV-3 ovarian = system: SK-OV-3 ovarian
SN12C renal = system: SN12C renal
SNB-19 CNS = system: SNB-19 CNS
786-0 renal = system: 786-0 renal
K-562 leukemia = system: K-562 leukemia
SNB-75 CNS = system: SNB-75 CNS
MALME-3M melanoma = system: MALME-3M melanoma
NCI-H522 lung = system: NCI-H522 lung
SW-620 colon = system: SW-620 colon
RXF 393 renal = system: RXF 393 renal
HOP-92 NSCLC = system: HOP-92 NSCLC
OVCAR-4 ovarian = system: OVCAR-4 ovarian
EKVX NSCLC = system: EKVX NSCLC
HCT-15 colon = system: HCT-15 colon

Structure (SMILES): C[C@@H](Nc1c(C#N)cnc2ccc(-c3cnc(N)nc3)cc12)c1ccccc1
- GI50 (U251 CNS): 2.13 µM
- TGI (U251 CNS): 77.5 µM
- GI50 (SF-295 CNS): 1.38 µM
- TGI (SF-295 CNS): 7.45 µM
- GI50 (NCI/ADR-RES ovarian): 2.87 µM
- TGI (NCI/ADR-RES ovarian): 18.1 µM
- GI50 (SK-MEL-2 melanoma): 1.76 µM
- TGI (SK-MEL-2 melanoma): 5.54 µM
- GI50 (IGROV1 ovarian): 0.454 µM
- TGI (IGROV1 ovarian): 3.87 µM
- GI50 (UACC-62 melanoma): 2.24 µM
- TGI (UACC-62 melanoma): 10 µM
- GI50 (MDA-MB-231 breast): 1.82 µM
- TGI (MDA-MB-231 breast): 50.4 µM
- GI50 (KM12 colon): 2.67 µM
- TGI (KM12 colon): > 100 µM
- GI50 (TK-10 renal): 0.289 µM
- TGI (TK-10 renal): 3.45 µM
- GI50 (SF-539 CNS): 2.21 µM
- TGI (SF-539 CNS): 12.8 µM
- GI50 (SF-268 CNS): 3.22 µM
- TGI (SF-268 CNS): > 100 µM
- GI50 (CAKI-1 renal): 0.781 µM
- TGI (CAKI-1 renal): 11.6 µM
- GI50 (A549 NSCLC): 1.55 µM
- TGI (A549 NSCLC): 13.7 µM
- GI50 (PC-3 prostate): 1.54 µM
- TGI (PC-3 prostate): 10.1 µM
- GI50 (COLO 205 colon): 3.06 µM
- TGI (COLO 205 colon): 13.4 µM
- GI50 (HCC-2998 colon): 2.78 µM
- TGI (HCC-2998 colon): > 100 µM
- GI50 (SK-MEL-5 melanoma): 1.84 µM
- TGI (SK-MEL-5 melanoma): 3.99 µM
- GI50 (RPMI-8226 leukemia): 0.588 µM
- TGI (RPMI-8226 leukemia): 4.92 µM
- GI50 (NCI-H460 lung): 1.73 µM
- TGI (NCI-H460 lung): 44.6 µM
- GI50 (OVCAR-5 ovarian): 1.62 µM
- TGI (OVCAR-5 ovarian): 83.8 µM
- GI50 (OVCAR-3 ovarian): 2.74 µM
- TGI (OVCAR-3 ovarian): > 100 µM
- GI50 (MDA-MB-435): 2.61 µM
- TGI (MDA-MB-435): > 100 µM
- GI50 (HS 578T breast): 1.19 µM
- TGI (HS 578T breast): 6.82 µM
- GI50 (OVCAR-8 ovarian): 2.5 µM
- TGI (OVCAR-8 ovarian): 24 µM
- GI50 (MCF7 breast): 1.15 µM
- TGI (MCF7 breast): 17.3 µM
- GI50 (DU-145 prostate): 1.91 µM
- TGI (DU-145 prostate): > 100 µM
- GI50 (CCRF-CEM leukemia): 1.89 µM
- TGI (CCRF-CEM leukemia): > 100 µM
- GI50 (A498 renal): 0.301 µM
- TGI (A498 renal): 3.48 µM
- GI50 (SR leukemia): 2.38 µM
- TGI (SR leukemia): > 100 µM
- GI50 (UO-31 renal): 0.31 µM
- TGI (UO-31 renal): 8.9 µM
- GI50 (UACC-257 melanoma): 2.79 µM
- TGI (UACC-257 melanoma): 17.1 µM
- GI50 (M14 melanoma): 2.8 µM
- TGI (M14 melanoma): 16.7 µM
- GI50 (SK-MEL-28 melanoma): 2.95 µM
- TGI (SK-MEL-28 melanoma): 26.9 µM
- GI50 (LOX IMVI melanoma): 1.64 µM
- TGI (LOX IMVI melanoma): 11 µM
- GI50 (T-47D breast): 0.907 µM
- TGI (T-47D breast): 7.86 µM
- GI50 (ACHN renal): 0.942 µM
- TGI (ACHN renal): 40.9 µM
- GI50 (HL-60(TB) leukemia): 2.07 µM
- TGI (HL-60(TB) leukemia): > 100 µM
- GI50 (MOLT-4 leukemia): 1.58 µM
- TGI (MOLT-4 leukemia): > 100 µM
- GI50 (HT29 colon): 2.43 µM
- TGI (HT29 colon): > 100 µM
- GI50 (HCT-116 colon): 2.46 µM
- TGI (HCT-116 colon): 11.1 µM
- GI50 (HOP-62 NSCLC): 1.98 µM
- TGI (HOP-62 NSCLC): 27.8 µM
- GI50 (NCI-H226 lung): 1.81 µM
- TGI (NCI-H226 lung): 12.7 µM
- GI50 (BT-549 breast): 1.05 µM
- TGI (BT-549 breast): 6.34 µM
- GI50 (SK-OV-3 ovarian): 2.16 µM
- TGI (SK-OV-3 ovarian): 7.38 µM
- GI50 (SN12C renal): 1.14 µM
- TGI (SN12C renal): 24.2 µM
- GI50 (SNB-19 CNS): 2.23 µM
- TGI (SNB-19 CNS): 60.6 µM
- GI50 (786-0 renal): 1.6 µM
- TGI (786-0 renal): 36.4 µM
- GI50 (K-562 leukemia): 2.49 µM
- TGI (K-562 leukemia): > 100 µM
- GI50 (SNB-75 CNS): 1.58 µM
- TGI (SNB-75 CNS): 37.5 µM
- GI50 (MALME-3M melanoma): 1.59 µM
- TGI (MALME-3M melanoma): 7.83 µM
- GI50 (NCI-H522 lung): 1.73 µM
- TGI (NCI-H522 lung): 10.6 µM
- GI50 (SW-620 colon): 3.73 µM
- TGI (SW-620 colon): > 100 µM
- GI50 (RXF 393 renal): 0.886 µM
- TGI (RXF 393 renal): 4.59 µM
- GI50 (HOP-92 NSCLC): 0.185 µM
- TGI (HOP-92 NSCLC): 1.11 µM
- GI50 (OVCAR-4 ovarian): 1.22 µM
- TGI (OVCAR-4 ovarian): 7.87 µM
- GI50 (EKVX NSCLC): 0.552 µM
- TGI (EKVX NSCLC): 5 µM
- GI50 (HCT-15 colon): 1.74 µM
- TGI (HCT-15 colon): 22.6 µM
